Laboratory results published in BindingDB's records for doi:10.1021/acs.jmedchem.7b00782 (Jadavpur University, 2018).

Assay: Inhibition of LAP (unknown origin)

Row | SMILES | Ki
1 | CC(C)CC(N)P(=O)(O)C(=O)N[C@H](CC(C)C)C(=O)O (some centres undefined) | 56 µM
2 | CC1(C)OB(C(N)Cc2ccccc2)OC1(C)C (centres undefined) | 0.05 µM
3 | CC(N)B1OC(C)(C)C(C)(C)O1 (centres undefined) | 90 µM
4 | CC(C)CC(N)B1OC(C)(C)C(C)(C)O1 (centres undefined) | 1.3 µM
